Substitutions are numbered along the chain they refer to. Where two headings read alike, the source gives them in different places. Square brackets hold non-standard residues; d marks the D form. Peptide text beside a SMILES is read from it. pY = N[C@@H](Cc1ccc(OP(=O)(O)O)cc1)C(=O)O
What was measured:
SHIP2-SH2 = settings: 6-mer phosphopeptides (-2 to +3), both with Leu at pY+3; cited from earlier work
Source text: When the natural phosphopeptides interacting with SHIP2-SH2 were ranked according to their affinities to SHIP2-SH2, it was seen that the affinity was related to the residue type at the pY+3 position (Figure 6F). The ligands showing high and moderate affinities have Leu (L) or Ile (I) residues at this site, while ligands with a low affinity have Val (V) at this site. These indicate that SHIP2-SH2 may have a preference for the hydrophobic side chain of the residue at the pY+3 site of its Tyr-phosphorylated ligand.

SHIP2-SH2 (wild type) [1] = target: T1, SHIP2-SH2 (wild type) (Homo sapiens, UniProt O15357); settings: summary Figure 6F, value from the authors' earlier NMR/FP study, cited from earlier work
T1 construct: The SHIP2 SH2 domain (hereafter represented by SHIP2-SH2); made in house
T1 sequence (O15357 21-117 limits assumed): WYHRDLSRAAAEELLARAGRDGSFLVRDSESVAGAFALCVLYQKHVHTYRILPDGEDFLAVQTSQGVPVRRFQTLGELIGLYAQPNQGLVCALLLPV
Source text: Figure 6 The binding interface and affinity of SHIP2-SH2 for different native ligands. The binding interface of SHIP2-SH2 for FcgR2B ITIM (A), CagA EPIYA-C/D (B), c-MET C-terminus (C), CagA EPIYA-A/B (D) is colored in blue. The additional interface of SHIP2-SH2 for 13-mer FcgR2B ITIM compared to 8-mer FcgR2B ITIM is colored in green. The interface was drawn according to the residues of SHIP2-SH2 showing a CSP greater than 0.2 ppm in NMR titration experiments with respective ligand. (E) The summarized three regions of SHIP2-SH2 which are differently engaged for binding different ligands are hig ...

SHIP2-SH2 R28A = target: T2, SHIP2-SH2 R28A (Homo sapiens, UniProt O15357, R28A); test: Fluorescence polarization binding, SHIP2-SH2 mutant R28A; settings: FP assay; FAM-labeled 13-mer phosphopeptide 100 nM; pH 7.5; n = 3 averaged; ± standard error of fitting; SEM; read-out: dissociation constant (KD) for SHIP2-SH2 R28A
T2 construct: The SHIP2 SH2 domain (hereafter represented by SHIP2-SH2); made in house
T2 sequence (O15357 21-117 R28A limits assumed): T1 sequence (O15357 21-117 limits assumed) with R8A
Procedure: (§1) Expression and purification of wild-type SHIP2-SH2 and its mutants including R28A, S49A, E50A, S51A, R70A, S84A and Q107A were carried out using the previously described method, and circular dichroism (CD) spectra were collected to confirm no obvious secondary structure change of the mutants. The purified proteins were concentrated to a final concentration of 0.2 mM for NMR experiments in the NMR buffer containing 90% H2O/10% D2O (v/v), 20 mM Tris, 100 mM NaCl, 10 mM DTT and 0.02% NaN3 at pH 7.5. Peptides derived from the four types of EPIYA motifs were synthesized by GL Biochem Ltd. (Shanghai, China). Tyr-phosphorylated peptides included: 8-mer (E-P-I-pY-A-K-V-N) and 13-mer (E-N-E-P-I-pY-A-K-V-N-K-K-K) EPIYA-A; 8-mer (E-P-I-pY-A-Q-V-A) and 13-mer (P-E-E-P-I-pY-A-Q-V-A-K-K-V) EPIYA-B; and 8-mer EPIYA-CD (E-P-I-pY-A-T-I-D), 13-mer EPIYA-C (S-P-E-P-I-pY-A-T-I-D-D-L-G) and 13-mer EPIYA-D (S-P-E-P-I-pY-A-T-I-D-F-D-E). The purities of the peptides were determined to be above 98% by high performance liquid chromatography (HPLC) and the molecular weights were confirmed by electrospray ionization mass spectrometry (ESI-MS).
(§2) The used phosphopeptides for different versions of CagA EPIYA A/B/C/D motifs were labeled with FAM at the N-terminal end and dissolved in a buffer containing 20 mM Tris, 100 mM NaCl, 10 mM DTT and 0.02% NaN3, at pH 7.5. The peptide concentration was kept at 100 nM, while wild-type SHIP2-SH2 and its mutants were serially diluted with the concentrations ranging from micromolar to nanomolar, and then mixed with the peptide, respectively. FP values of FAM-labeled peptides bound by SHIP2-SH2 were measured using a SpectraMax i3x multi-mode plate reader (Molecular Devices) by recording the excitation at 485 nm and emission at 528 nm. Each binding reaction was repeated three times, and the polarization values were averaged (given in units of mP). The averaged polarization value of each titration point was subtracted from that of the free peptide to obtain the final value. The dissociation constants (KD) were calculated using the final polarization value of each titration point as previously described.

SHIP2-SH2 R70A = target: T3, SHIP2-SH2 R70A (Homo sapiens, UniProt O15357, R70A); test: Fluorescence polarization binding, SHIP2-SH2 mutant R70A; settings: FP assay; FAM-labeled 13-mer phosphopeptide 100 nM; pH 7.5; n = 3 averaged; ± standard error of fitting; SEM; read-out: dissociation constant (KD) for SHIP2-SH2 R70A
T3 construct: The SHIP2 SH2 domain (hereafter represented by SHIP2-SH2); made in house
T3 sequence (O15357 21-117 R70A limits assumed): T1 sequence (O15357 21-117 limits assumed) with R50A
Procedure: as §1, §2

SHIP2-SH2 Q107A = target: T4, SHIP2-SH2 Q107A (Homo sapiens, UniProt O15357, Q107A); test: Fluorescence polarization binding, SHIP2-SH2 mutant Q107A; settings: FP assay; FAM-labeled 13-mer phosphopeptide 100 nM; pH 7.5; n = 3 averaged; ± standard error of fitting; SEM; read-out: dissociation constant (KD) for SHIP2-SH2 Q107A
T4 construct: The SHIP2 SH2 domain (hereafter represented by SHIP2-SH2); made in house
T4 sequence (O15357 21-117 Q107A limits assumed): T1 sequence (O15357 21-117 limits assumed) with Q87A
Procedure: as §1, §2

SHIP2-SH2 (wild type) [2] = target: T1, SHIP2-SH2 (wild type); test: Fluorescence polarization binding of FAM-labeled phosphopeptides to wild-type SHIP2-SH2; settings: FP assay, N-terminally FAM-labeled phosphopeptide 100 nM, 20 mM Tris, 100 mM NaCl, 10 mM DTT, 0.02% NaN3, pH 7.5, each reaction repeated three times, averaged, ± standard error of curve fitting, read-out: dissociation constant (KD) for wild-type SHIP2-SH2
Procedure: as §1, §2

SHIP2-SH2 S49A = target: T5, SHIP2-SH2 S49A (Homo sapiens, UniProt O15357, S49A); test: Fluorescence polarization binding, SHIP2-SH2 mutant S49A; settings: FP assay; FAM-labeled 13-mer phosphopeptide 100 nM; pH 7.5; n = 3 averaged; ± standard error of fitting; SEM; read-out: dissociation constant (KD) for SHIP2-SH2 S49A
T5 construct: The SHIP2 SH2 domain (hereafter represented by SHIP2-SH2); made in house
T5 sequence (O15357 21-117 S49A limits assumed): T1 sequence (O15357 21-117 limits assumed) with S29A
Procedure: as §1, §2

SHIP2-SH2 S51A = target: T6, SHIP2-SH2 S51A (Homo sapiens, UniProt O15357, S51A); test: Fluorescence polarization binding, SHIP2-SH2 mutant S51A; settings: FP assay; FAM-labeled 13-mer phosphopeptide 100 nM; pH 7.5; n = 3 averaged; ± standard error of fitting; SEM; read-out: dissociation constant (KD) for SHIP2-SH2 S51A
T6 construct: The SHIP2 SH2 domain (hereafter represented by SHIP2-SH2); made in house
T6 sequence (O15357 21-117 S51A limits assumed): T1 sequence (O15357 21-117 limits assumed) with S31A
Procedure: as §1, §2

SHIP2-SH2 S84A = target: T7, SHIP2-SH2 S84A (Homo sapiens, UniProt O15357, S84A); test: Fluorescence polarization binding, SHIP2-SH2 mutant S84A; settings: FP assay; FAM-labeled 13-mer phosphopeptide 100 nM; pH 7.5; n = 3 averaged; ± standard error of fitting; SEM; read-out: dissociation constant (KD) for SHIP2-SH2 S84A
T7 construct: The SHIP2 SH2 domain (hereafter represented by SHIP2-SH2); made in house
T7 sequence (O15357 21-117 S84A limits assumed): T1 sequence (O15357 21-117 limits assumed) with S64A
Procedure: as §1, §2

SHIP2-SH2 E50A = target: T8, SHIP2-SH2 E50A (Homo sapiens, UniProt O15357, E50A); test: Fluorescence polarization binding, SHIP2-SH2 mutant E50A; settings: FP assay; FAM-labeled 13-mer phosphopeptide 100 nM; pH 7.5; n = 3 averaged; ± standard error of fitting; SEM; read-out: dissociation constant (KD) for SHIP2-SH2 E50A
T8 construct: The SHIP2 SH2 domain (hereafter represented by SHIP2-SH2); made in house
T8 sequence (O15357 21-117 E50A limits assumed): T1 sequence (O15357 21-117 limits assumed) with E30A
Procedure: as §1, §2

Compound | Kd (SHIP2-SH2 R28A) [µM] | Kd (SHIP2-SH2 R70A) [µM] | Kd (SHIP2-SH2 Q107A) [µM] | Kd (SHIP2-SH2 (wild type) [2]; SEM) [µM] | Kd (SHIP2-SH2 S49A) [µM] | Kd (SHIP2-SH2 S51A) [µM] | Kd (SHIP2-SH2 S84A) [µM] | Kd (SHIP2-SH2 E50A) [µM] | also measured
GGpYMTL [FcgR2A ITAM, 6-mer FcgR2A ITAM phosphopeptide (−2 to +3) of a previous SPR study] |  |  |  |  |  |  |  |  | KD for SHIP2-SH2 by SPR (comparison in words) (SHIP2-SH2): comparable KD values
ITpYSLL [6-mer FcgR2B ITIM, 6-mer FcgR2B ITIM phosphopeptide (-2 to +3) of a previous SPR study] |  |  |  |  |  |  |  |  | KD for SHIP2-SH2 by SPR (comparison in words) (SHIP2-SH2): comparable KD values
FcgR2B: Tyr-phosphorylated FcgR2B-ITIM peptide from the authors' previous study (ENTITYSLLMHPD; not fully specified; phospho-Tyr292 (ITIM tyrosine); an 8-mer form (289-296, pY-3 to pY+4) was also used in the cited study) |  |  |  |  |  |  |  |  | Kd (SHIP2-SH2 (wild type) [1]; read-out: Binding Affinities KD for SHIP2-SH2 (FcgR2B ITIM phosphopeptide)): 0.4 µM
CC[C@H](C)[C@H](NC(=O)[C@@H](NC(=O)[C@H](C)NC(=O)[C@H](Cc1ccc(OP(=O)(O)O)cc1)NC(=O)[C@@H](NC(=O)[C@@H]1CCCN1C(=O)[C@H](CCC(=O)O)NC(=O)[C@@H]1CCCN1C(=O)[C@@H](N)CO)[C@@H](C)CC)[C@@H](C)O)C(=O)N[C@@H](CC(=O)O)C(=O)N[C@@H](CC(=O)O)C(=O)N[C@@H](CC(C)C)C(=O)NCC(=O)O [EPIYA-C] (H-SPEPI[pY]ATIDDLG-OH) | 12.9 ± 1.38 | 119 ± 4.93 | 2.78 ± 0.14 | 2.96 ± 0.14 | 77.5 ± 3.12 | 22.4 ± 2.88 | 2.79 ± 0.18 | 0.96 ± 0.14 | 
c-MET: Y1356-phosphorylated c-MET C-terminus peptide from the authors' previous study (NATYVNVK; not fully specified; phospho-Tyr1356) |  |  |  |  |  |  |  |  | Kd (SHIP2-SH2 (wild type) [1]; read-out: Binding Affinities KD for SHIP2-SH2 (c-MET phosphopeptide)): 7.43 µM
CC[C@H](C)[C@H](NC(=O)[C@@H](NC(=O)[C@H](C)NC(=O)[C@H](Cc1ccc(OP(=O)(O)O)cc1)NC(=O)[C@@H](NC(=O)[C@@H]1CCCN1C(=O)[C@@H](N)CCC(=O)O)[C@@H](C)CC)[C@@H](C)O)C(=O)N[C@@H](CC(=O)O)C(=O)O [8-mer EPIYA-CD] (H-EPI[pY]ATID-OH) |  |  |  |  |  |  |  |  | Kd (SHIP2-SH2 (wild type) [2]): 4.45 µM
CC[C@H](C)[C@H](NC(=O)[C@@H]1CCCN1C(=O)[C@H](CCC(=O)O)NC(=O)[C@H](CCC(=O)O)NC(=O)[C@@H]1CCCN1)C(=O)N[C@@H](Cc1ccc(OP(=O)(O)O)cc1)C(=O)N[C@@H](C)C(=O)N[C@@H](CCC(N)=O)C(=O)N[C@H](C(=O)N[C@@H](C)C(=O)N[C@@H](CCCCN)C(=O)N[C@@H](CCCCN)C(=O)N[C@H](C(=O)O)C(C)C)C(C)C [EPIYA-B] (H-PEEPI[pY]AQVAKKV-OH) | 143 ± 17.4 | 532 ± 47.5 | 21.4 ± 1.33 | 18.6 ± 1.25 | 303 ± 16.2 | 171 ± 36 | 17.9 ± 0.95 | 6.6 ± 0.6 | 
CC[C@H](C)[C@H](NC(=O)[C@@H](NC(=O)[C@H](C)NC(=O)[C@H](Cc1ccc(OP(=O)(O)O)cc1)NC(=O)[C@@H](NC(=O)[C@@H]1CCCN1C(=O)[C@H](CCC(=O)O)NC(=O)[C@@H]1CCCN1C(=O)[C@@H](N)CO)[C@@H](C)CC)[C@@H](C)O)C(=O)N[C@@H](CC(=O)O)C(=O)N[C@@H](Cc1ccccc1)C(=O)N[C@@H](CC(=O)O)C(=O)N[C@@H](CCC(=O)O)C(=O)O [EPIYA-D] | 15.5 ± 2.77 | 116 ± 6.61 | 3.46 ± 0.2 | 3.16 ± 0.13 | 76.8 ± 5.16 | 24.6 ± 2.23 | 2.69 ± 0.19 | 1.14 ± 0.16 | 
CC[C@H](C)[C@H](NC(=O)[C@@H]1CCCN1C(=O)[C@H](CCC(=O)O)NC(=O)[C@H](CC(N)=O)NC(=O)[C@@H](N)CCC(=O)O)C(=O)N[C@@H](Cc1ccc(OP(=O)(O)O)cc1)C(=O)N[C@@H](C)C(=O)N[C@@H](CCCCN)C(=O)N[C@H](C(=O)N[C@@H](CC(N)=O)C(=O)N[C@@H](CCCCN)C(=O)N[C@@H](CCCCN)C(=O)N[C@@H](CCCCN)C(=O)O)C(C)C [EPIYA-A] (H-ENEPI[pY]AKVNKKK-OH) | 133 ± 6.95 | 539 ± 24.2 | 25.5 ± 1.5 | 23.4 ± 1.03 | 419 ± 18.6 | 180 ± 37.4 | 16.4 ± 0.47 | 8.28 ± 0.67 | 

Source: publication PMC9569640, “Structural Insights into the Binding Propensity of Human SHIP2 SH2 to Oncogenic CagA Isoforms from Helicobacter pylori” (International Journal of Molecular Sciences, 2022)
